Source: patent publication US7012094B1, “Substituted furans and furanones for the treatment of inflammation” (G.D. Searle, LLC, priority 1994, dated 2006)
Marks after values point to notes of the source that are not given here.

Experiments:
[1] = tested on: carrageenan-induced hyperalgesic foot withdrawal; test: Rat carrageenan-induced analgesia test; assay type: in vivo; details: oral, 3 mpk (footnote *); 3 h after carrageenan
Experimental: The analgesia test using rat carrageenan was performed with materials, reagents and procedures essentially as described by Hargreaves, et al., (Pain, 32, 77 (1988)). Male Sprague-Dawley rats were treated as previously described for the Carrageenan Foot Pad Edema test. Three hours after the injection of the carrageenan, the rats were placed in a special plexiglass container with a transparent floor having a high intensity lamp as a radiant heat source, positionable under the floor. After an initial twenty minute period, thermal stimulation was begun on either the injected foot or on the contralateral uninjected foot. A photoelectric cell turned off the lamp and timer when light was interrupted by paw withdrawal. The time until the rat withdraws its foot was then measured. The withdrawal latency in seconds was determined for the control and drug-treated groups, and percent inhibition of the hyperalgesic foot withdrawal determined.

Murine COX II = molecular target: T1, Murine COX II (Mus musculus, UniProt Q05769); test: COX II activity in vitro (PGE2 ELISA, recombinant enzyme); assay type: biochemical; details: arachidonic acid 10 μM, read-out: Murine COX II ID50
T1 construct: coding region of either human or murine COX-I or human or murine COX-II was cloned; made in house; host or cells: SF9 insect cells (baculovirus, pVL1393)
T1 sequence (Q05769 18-604): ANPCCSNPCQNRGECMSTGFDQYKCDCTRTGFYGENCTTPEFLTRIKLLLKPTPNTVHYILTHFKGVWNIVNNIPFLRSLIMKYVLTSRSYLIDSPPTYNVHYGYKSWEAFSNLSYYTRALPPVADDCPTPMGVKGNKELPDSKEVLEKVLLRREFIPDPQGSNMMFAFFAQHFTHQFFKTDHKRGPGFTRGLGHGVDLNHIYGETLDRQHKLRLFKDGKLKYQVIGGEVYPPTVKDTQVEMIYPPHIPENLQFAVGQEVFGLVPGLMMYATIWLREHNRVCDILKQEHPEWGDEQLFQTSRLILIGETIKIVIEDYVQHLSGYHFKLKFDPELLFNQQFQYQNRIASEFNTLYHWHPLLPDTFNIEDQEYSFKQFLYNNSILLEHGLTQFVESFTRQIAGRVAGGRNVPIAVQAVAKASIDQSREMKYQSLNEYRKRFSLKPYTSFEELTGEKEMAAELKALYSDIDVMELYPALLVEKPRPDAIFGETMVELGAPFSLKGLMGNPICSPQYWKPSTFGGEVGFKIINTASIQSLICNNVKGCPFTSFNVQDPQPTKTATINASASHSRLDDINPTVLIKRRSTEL
Experimental: A 2.0 kb fragment containing the coding region of either human or murine COX-I or human or murine COX-II was cloned into a BamH1 site of the baculovirus transfer vector pVL1393 to generate the baculovirus transfer vector. Recombinant baculoviruses were isolated by transfecting 4 μg of baculovirus transfer vector DNA into SF9 cells (2×10e8) along with 200 ng of linearized baculovirus plasmid DNA by the calcium phosphate method. […] The homogenate was centrifuged at 10,000×G for 30 minutes, and the resultant supernatant was stored at −80° C. before being assayed for COX activity.
COX activity was assayed as PGE2 formed/μg protein/time using an ELISA to detect the prostaglandin released. CHAPS-solubilized insect cell membranes containing the appropriate COX enzyme were incubated in a potassium phosphate buffer (50 mM, pH 8.0) containing epinephrine, phenol, and heme with the addition of arachidonic acid (10 μM). […] The PGE2 formed was measured by standard ELISA technology (Cayman Chemical).

IC50 (Murine COX II) | SMILES | ANALGESIA % Inhibition @ 3 mpk [1]
 | CS(=O)(=O)c1ccc(-c2csc(Br)c2-c2ccc(F)cc2)cc1 [Example 2, 4-(4-Methylsulfonylphenyl)-3-(4-fluorophenyl)-2-bromothiophene] | 0* %
< 100 nM | Cc1cc(F)ccc1-c1cscc1-c1ccc(S(C)(=O)=O)cc1 [Example 15, 3-(4-Methylsulfonylphenyl)-4-(2-methyl-4-fluorophenyl) thiophene] | 
